From patent US7968577B2 (Bristol-Myers Squibb Company, priority 2006, dated 2011)

Assays:
[1] = molecular target: T1, human full-length glucocorticoid receptor (Homo sapiens, UniProt P04150); assay: Glucocorticoid Receptor Binding Assay (II), fluorescence polarization competitor kit (Fluormone GS1); settings: GR Binding Assay (II)
T1 construct: recombinantly expressed human full-length glucocorticoid receptor; purchased PanVera Co., Madison, Wis; P2816
T1 sequence (P04150 1-777): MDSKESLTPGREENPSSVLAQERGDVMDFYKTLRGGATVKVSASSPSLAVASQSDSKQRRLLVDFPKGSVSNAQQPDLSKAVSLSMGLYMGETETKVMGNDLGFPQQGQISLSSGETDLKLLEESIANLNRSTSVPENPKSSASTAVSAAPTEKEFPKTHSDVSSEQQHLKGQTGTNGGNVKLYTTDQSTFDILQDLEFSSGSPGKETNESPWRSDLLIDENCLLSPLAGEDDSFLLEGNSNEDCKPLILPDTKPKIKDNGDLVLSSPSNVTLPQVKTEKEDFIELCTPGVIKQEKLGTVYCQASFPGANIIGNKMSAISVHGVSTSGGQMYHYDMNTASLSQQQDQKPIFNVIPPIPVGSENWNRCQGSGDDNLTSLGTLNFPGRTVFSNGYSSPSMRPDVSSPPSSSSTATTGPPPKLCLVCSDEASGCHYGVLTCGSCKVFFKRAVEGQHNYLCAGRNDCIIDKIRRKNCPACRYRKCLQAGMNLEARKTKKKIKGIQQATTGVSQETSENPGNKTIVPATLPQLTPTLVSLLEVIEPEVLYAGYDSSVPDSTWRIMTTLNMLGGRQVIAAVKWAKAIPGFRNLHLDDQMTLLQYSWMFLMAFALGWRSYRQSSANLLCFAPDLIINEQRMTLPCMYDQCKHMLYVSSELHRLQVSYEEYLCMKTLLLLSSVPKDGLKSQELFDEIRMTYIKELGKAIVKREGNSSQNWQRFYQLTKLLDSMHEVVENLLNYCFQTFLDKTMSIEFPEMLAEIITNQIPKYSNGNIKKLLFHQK
Procedure: Glucocorticoid Receptor Binding Assay (II)^b
In order to measure the binding of compounds on the glucocorticoid receptor a commercially available kit was used (Glucocorticoid receptor competitor assay kit, PanVera Co., Madison, Wis., P2816). Briefly, a cell lysate containing recombinantly expressed human full-length glucocorticoid receptor was mixed with a fluorescently labeled glucocorticoid (1 nM Fluormone GS1) in the presence or absence of test compound. After one hour at room temperature, the fluorescence polarization (FP) of the samples were measured.

[2] = system: AP-1 induced transcriptional activity; assay: Cellular Transrepressional Assay: AP-1 luciferase reporter in PMA-activated A549 cells; format: cell-based; settings: Homo sapiens; for Emax: A549, 7 h, maximum inhibition, Cellular Transrepression Assay, read-out: AP-1 Max % inh (Cellular Transrepression Assay); for EC50: A549, Cellular Transrepression Assay
Outline: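 A549 cells stably carrying a 7× AP-1–luciferase reporter were stimulated with 10 ng/ml PMA with or without compound (0.1 nM–40 μM) for 7 h. Luminescence read 10 min after luciferase reagent; EC50 fitted from % decrease versus PMA-only signal.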

SMILES | Ki [1] [nM] | Emax [2] [%] | EC50 [2] [nM]
CC(C)(C(=O)Nc1nccs1)[C@@H](c1ccccc1)c1ccc(N2CCOCC2)cc1 (stereo in doubt) [Example 257, 2,2-dimethyl-3-(4-(4-morpholinyl)phenyl)-3-phenyl-N-1,3-thiazol-2-ylpropanamide] | 71.4 |  | 
CC(C)(C(=O)Nc1nncs1)[C@@H](c1ccccc1)c1ccc(N2CCOCC2)cc1 (stereo in doubt) [Example 259, 2,2-dimethyl-3-(4-(4-morpholinyl)phenyl)-3-phenyl-N-1,3,4-thiadiazol-2-ylpropanamide] | 190 |  | 
COc1ccc(C(c2ccc(OC)cc2)C(C)(C)C(=O)Nc2nccs2)cc1 [Example 69, 2,2-dimethyl-3,3-bis(4-(methyloxy)phenyl)-N-1,3-thiazol-2-ylpropanamide] | 67.2 |  | 
CC(C)(C(=O)Nc1nccs1)C(c1ccc(F)cc1)c1ccc(N2CCOCC2)cc1 (stereo not shown) [Example 222, 3-(4-Fluorophenyl)-2,2-dimethyl-3-(4-(4-morpholinyl)phenyl)-N-1,3-thiazol-2-ylpropanamide] | 12.6 |  | 
Cc1ccc(C(c2ccc(N3CCOCC3)cc2)C(C)(C)C(=O)Nc2nncs2)cc1 (stereo not shown) [Example 226, 2,2-dimethyl-3-(4-methylphenyl)-3-(4-(4-morpholinyl)phenyl)-N-1,3,4-thiadiazol-2-ylpropanamide] | 9.4 |  | 
CC(C)(C(=O)Nc1nncs1)C(c1ccc(F)cc1)c1ccc(N2CCOCC2)cc1 (stereo not shown) [Example 231, 3-(4-fluorophenyl)-2,2-dimethyl-3-(4-(4-morpholinyl)phenyl)-N-1,3,4-thiadiazol-2-ylpropanamide] | 18.2 |  | 
CC(C)(C(=O)Nc1nccs1)C(c1ccc(Cl)cc1)c1ccc(N2CCOCC2)cc1 (stereo not shown) [Example 232, 3-(4-chlorophenyl)-2,2-dimethyl-3-(4-(4-morpholinyl)phenyl)-N-1,3-thiazol-2-ylpropanamide] | 14.5 |  | 
CC(C)(C(=O)Nc1nncs1)C(c1ccc(Cl)cc1)c1ccc(N2CCOCC2)cc1 (stereo not shown) [Example 233, 3-(4-chlorophenyl)-2,2-dimethyl-3-(4-(4-morpholinyl)phenyl)-N-1,3,4-thiadiazol-2-ylpropanamide] | 13.2 |  | 
CC(C)(C(=O)Nc1nncs1)C(c1ccccc1)c1ccc(N2CCCC2)cc1 (stereo not shown) [Example 237, 2,2-dimethyl-3-phenyl-3-(4-(1-pyrrolidinyl)phenyl)-N-1,3,4-thiadiazol-2-ylpropanamide] | 13.6 |  | 
CC(C)(C)OC(=O)N1CCN(c2ccc(C(c3ccccc3)C(C)(C)C(=O)Nc3nncs3)cc2)CC1 (stereo not shown) [Example 238, 1,1-dimethylethyl 4-(4-(2,2-dimethyl-3-oxo-1-phenyl-3-(1,3,4-thiadiazol-2-ylamino)propyl)phenyl)-1-piperazinecarboxylate] | 408 |  | 
CC(C)(C)OC(=O)N1CCN(c2ccc(C(c3ccccc3)C(C)(C)C(=O)Nc3nccs3)cc2)CC1 (stereo not shown) [Example 239, 2,2-dimethylethyl 4-(4-(2,2-dimethyl-3-oxo-1-phenyl-3-(1,3-thiazol-2-ylamino)propyl)phenyl)-1-piperazinecarboxylate] | 324 |  | 
Cc1ccc(CNc2ccc(C(c3ccccc3)C(C)(C)C(=O)Nc3nncs3)cc2)cc1 (stereo not shown) [Example 240, 2,2-dimethyl-3-(4-(((4-methylphenyl)methyl)amino)phenyl)-3-phenyl-N-1,3,4-thiadiazol-2-ylpropanamide] | 18.6 |  | 
CC(C)(C(=O)Nc1nncs1)C(c1ccccc1)c1ccc(N2CCC(O)CC2)cc1 (stereo not shown) [Example 241, 3-(4-(4-hydroxy-1-piperidinyl)phenyl)-2,2-dimethyl-3-phenyl-N-1,3,4-thiadiazol-2-ylpropanamide] | 31.3 |  | 
CC(C)(C(=O)Nc1nccs1)C(c1ccccc1)c1ccc(N2CCC(O)CC2)cc1 (stereo not shown) [Example 242, 3-(4-(4-hydroxy-1-piperidinyl)phenyl)-2,2-dimethyl-3-phenyl-N-1,3-thiazol-2-ylpropanamide] | 9.6 |  | 
CC(C)(C(=O)Nc1nccs1)C(c1ccccc1)c1ccc(Nc2ccc(F)cc2)cc1 (stereo not shown) [Example 243, 3-(4-((4-fluorophenyl)amino)phenyl)-2,2-dimethyl-3-phenyl-N-1,3-thiazol-2-ylpropanamide] | 29.1 |  | 
CC(C)(C(=O)Nc1nncs1)C(c1ccccc1)c1ccc(N2CCOCC2)c(F)c1 (stereo not shown) [Example 244, 3-(3-fluoro-4-(4-morpholinyl)phenyl)-2,2-dimethyl-3-phenyl-N-1,3,4-thiadiazol-2-ylpropanamide] | 17.8 |  | 
CC(C)(C(=O)Nc1nncs1)C(c1ccccc1)c1cccc(N2CCOCC2)c1 (stereo not shown) [Example 245, 2,2-dimethyl-3-(3-(4-morpholinyl)phenyl)-3-phenyl-N-1,3,4-thiadiazol-2-ylpropanamide] | 2310 |  | 
CC(=O)Nc1ccc(C(c2ccccc2)C(C)(C)C(=O)Nc2nncs2)cc1 (stereo not shown) [Example 246, 3-(4-(acetylamino)phenyl)-2,2-dimethyl-3-phenyl-N-1,3,4-thiadiazol-2-ylpropanamide] | 1500 |  | 
CC(=O)Nc1ccc(C(c2ccccc2)C(C)(C)C(=O)Nc2nccs2)cc1 (stereo not shown) [Example 247, 3-(4-(acetylamino)phenyl)-2,2-dimethyl-3-phenyl-N-1,3-thiazol-2-ylpropanamide] | 413 |  | 
CC(C)(C)OC(=O)Nc1ccc(C(c2ccccc2)C(C)(C)C(=O)Nc2nncs2)cc1 (stereo not shown) [Example 248, 1,1-dimethylethyl (4-(2,2-dimethyl-3-oxo-1-phenyl-3-(1,3,4-thiadiazol-2-ylamino)propyl)phenyl)carbamate] | 306 |  | 
CC(C)(C(=O)Nc1nccs1)C(C)(c1ccccc1)c1ccc(N2CCOCC2)cc1 (stereo not shown) [Example 249, 2,2-dimethyl-3-(4-(4-morpholinyl)phenyl)-3-phenyl-N-1,3-thiazol-2-ylbutanamide] | 181 |  | 
CC(C)(C(=O)Nc1nccs1)C(c1ccccc1)c1ccc(N2CCNCC2)cc1 (stereo not shown) [Example 250, 2,2-Dimethyl-3-phenyl-3-(4-(1-piperazinyl)phenyl)-N-1,3-thiazol-2-ylpropanamide] | 348 |  | 
CC(C)(C(=O)Nc1nncs1)C(c1ccccc1)c1ccc(N2CCNCC2)cc1 (stereo not shown) [Example 251, 2,2-dimethyl-3-phenyl-3-(4-(1-piperazinyl)phenyl)-N-1,3,4-thiadiazol-2-ylpropanamide] | 636 |  | 
CC(C)c1cccc(-c2ccc(C(c3ccccc3)C(C)(C)C(=O)Nc3nncs3)cc2)c1 (stereo not shown) [Example 423, 3-(3′-isopropyl-4-biphenylyl)-2,2-dimethyl-3-phenyl-N-1,3,4-thiadiazol-2-ylpropanamide] |  | 34.8 | 6.07
CC(C)(C)NC(=O)c1ccc(-c2ccc(C(c3ccccc3)C(C)(C)C(=O)Nc3nncs3)cc2)cc1 (stereo not shown) [Example 424, N-tert-butyl-4′-(2,2-dimethyl-3-oxo-1-phenyl-3-(1,3,4-thiadiazol-2-ylamino)propyl)-4-biphenylcarboxamide] |  | 26.4 | 14.5
CC(C)(C(=O)Nc1nncs1)C(c1ccccc1)c1ccc(-c2ccc(C(=O)NC3CC3)cc2)cc1 (stereo not shown) [Example 425, N-cyclopropyl-4′-(2,2-dimethyl-3-oxo-1-phenyl-3-(1,3,4-thiadiazol-2-ylamino)propyl)-4-biphenylcarboxamide] |  | 28.7 | 3.63
CCCCOc1ccc(-c2ccc(C(CC(C)C)C(C)(C)C(=O)Nc3nncs3)cc2)cc1 (stereo not shown) [Example 442, 3-(4′-butoxy-4-biphenylyl)-2,2,5-trimethyl-N-1,3,4-thiadiazol-2-ylhexanamide] |  | 22.7 | 11.7
